Counter-ions that a name gives are not always drawn.

In this data set the test system is trigeminal plexiform neurofibroma. In words: Compassionate use treatment with imatinib mesylate of a child presenting with a plexiform neurofibroma (MRI). The class given is in vivo, human. The source says:
Plexiform neurofibromas primarily present in infants and young children with NF1 are frequently characterized by rapid growth and invasion into adjacent organs often resulting in impairment of normal organ function. In addition, these tumors have a high likelihood of progressing to malignancy for which there is no cure.

In the case of `Cc1ccc(NC(=O)c2ccc(CN3CCN(C)CC3)cc2)cc1Nc1nccc(-c2cccnc2)n1` [imatinib mesylate, 4-(4-methylpiperazin-1-ylmethyl)-N-[4-methyl-3-(4-(pyridin-3-yl)pyrimidin-2-ylamino)phenyl]-benzamide], for the setting “NF1 patient, 350 mg/m2/dose, treatment for six months”, the side effects result is reported as “no observed side effects”. Further, the “tumor size (coronal MRI)” value (before vs 6 months following treatment) is listed as “profound decrease in tumor size”. Besides, the “upper airway (axial MRI)” value (before vs after 6 months of treatment) is given as “marked improvement with airway enlargement”. For the same compound, the “recurrence of symptoms off treatment” value (off treatment for six months after six months of treatment) was “without a recurrence of symptoms”.

Source of the values: patent US9345704B2, “Materials and methods for suppressing and/or treating neurofibroma and related tumors” (Indiana University Research and Technology Corp., priority 2008, dated 2016).
